Measurements as given in patent US6703207B2, “Method of screening substances with a glycidyl methacrylate covered styrene-glycidyl methacrylate polymer” (priority 1996, dated 2004).
Blank lines part the entries; values can stand above or below the compound they belong to.

How the values were obtained:
[1] = system: protein with a molecular weight of about 110 kDa; experiment: Isolation and competition with DQ2511-immobilized particles, HeLa cytoplasmic fraction; type: binding; settings: 1.0 M KCl eluate
Protocol: To these washed DQ2511-not-immobilized SG-EGDE particles and DQ2511-immobilized-SG-EGDE particles, 1 ml of the diluted cytoplasmic fraction was added and mixed. […] The wash solution and eluate solutions were stored at −80° C.

[2] = system: protein with a molecular weight of about 170 kDa; experiment: Isolation and competition with DQ2511-immobilized particles, lysate of rat DRG cell; type: binding; settings: concentrated crude lysate of rat DRG cell
Protocol: Microspheres and the concentrated crude lysate of rat DRG cell were mixed and centrifuged to separate substances binding to DQ2511 which was immobilized on particles from the mixture. The procedures of binding, washing and detection of protein were performed as described above. […] In the above procedure, about 10 ng of 170 kDa DQ2511-binding protein was obtained from 1 mg of the DQ2511-immobilized SG-EGDE particles.

[3] = system: proteins with a molecular weight of about 60, 38, and 27 kDa; experiment: Isolation and competition with E3330-immobilized SG-EGDE particles, Jurkat nuclear extract; type: binding; settings: 1M KCl eluate
Protocol: From the purification using P.1, there was not observed any specific protein band specifically eluted from E3330-immobilized particles.
The identification of the specific proteins were conducted by electrophoresis using SDS-PAGE.

[4] = molecular target: protein with a molecular weight of about 38 kDa (Ref-1) (Homo sapiens, UniProt P27695); experiment: Isolation and competitive binding-inhibition with E3330-immobilized SG-EGDE particles, Jurkat cytoplasmic P.5 fraction
Solubility in water = type: physicochemical
[5] = molecular target: T1, Ref-1 acting on p50/p50 homo-dimer or p65/p50 hetero-dimer (Homo sapiens, UniProt P27695); experiment: Gel-shift assay with recombinant p65 and p50 subunits; type: biochemical
T1 construct: His6 (pET14b) (N); made in house; p50 and p65: baculovirus expression system

Ref-1 [6] = molecular target: T2, Ref-1 (Homo sapiens, UniProt P27695); experiment: AP nuclease activity of recombinant Ref-1 on AP plasmid DNA; type: biochemical; settings: supercoiled AP plasmid DNA to open circular
T2 construct: His6 (pET14b) (N); made in house
Protocol: First, concerning AP nuclease activity, the plasmid pBluescript SK+DNA (50 μg) was treated with 50 mM sodium citrate (pH 3.5) at 60° C. for 15 minutes, followed by dialysis in 50 mM Tris-HCl (pH 7.4) at 4° C. for about 24 hours.

NF-κB = experiment: Transfection of NF-κB-regulated luciferase plasmid into Jurkat cells; type: cell-based; settings: luciferase genes regulated by NF-κB
Description: The functions of NH2-E3330 were compared with those of E3330 with respect to transcriptional activation abilities of NF-κB.

Ref-1 [7] = molecular target: T2, Ref-1; experiment: Far Western method using 14C-labeled E3330; type: binding
[8] = molecular target: recombinant protein of Ref-1 (Homo sapiens, UniProt P27695); experiment: Binding of recombinant Ref-1 to E3330-immobilized particles
[9] = molecular target: T3, Ref-1 redox activity on NF-κB (Homo sapiens, UniProt P27695); experiment: Gel-shift assay of NF-κB DNA binding, NF-κB partially purified from Jurkat cells; type: biochemical
T3 construct: His6 (pET14b) (N); made in house; NF-κB: partially purified from Jurkat cells
Protocol: Prior to the conduction of the investigation, there are some considerations. […] There are two cases; one is an oxidized condition where these cystine residues are bound to each other through an S-S bond; and the other one is a reduced condition where they are individually existing with an SH-group. Therefore, NF-κB was treated with dithiothreitol (DTT) that is known as a reductant to make the state of NF-κB to be reduction.

[10] = molecular target: T4, Ref-1 amino acid sequence 72 a.a. to 88 a.a. (Homo sapiens, UniProt P27695); experiment: Binding of Ref-1 fragment 72 a.a. to 88 a.a. to E3330-immobilized particles
T4 construct: made in house

[11] = system: protein with a molecular weight of about 30 kDa; experiment: Isolation and competition with H-9-immobilized SG-EGDE particles, HeLa cell nuclear extracts; type: binding; settings: for elution of the 30 kDa protein from H-9-immobilized particles by free drug: elution with 3 mM drug; for yield of the 30 kDa protein in competition experiment: free drug added simultaneously
Protocol: HeLa cell nuclear extracts (NE) were prepared according to the method as described previously (Dignam, J. D., Lebovitz, R. M. and Roeder, R. G. (1983). Accurate transcription by RNA pol II in a soluble extracts from isolated mammalian nucleic. Nucleic Acids Res 11. 1475-1489).

T2 sequence (P27695 whole entry): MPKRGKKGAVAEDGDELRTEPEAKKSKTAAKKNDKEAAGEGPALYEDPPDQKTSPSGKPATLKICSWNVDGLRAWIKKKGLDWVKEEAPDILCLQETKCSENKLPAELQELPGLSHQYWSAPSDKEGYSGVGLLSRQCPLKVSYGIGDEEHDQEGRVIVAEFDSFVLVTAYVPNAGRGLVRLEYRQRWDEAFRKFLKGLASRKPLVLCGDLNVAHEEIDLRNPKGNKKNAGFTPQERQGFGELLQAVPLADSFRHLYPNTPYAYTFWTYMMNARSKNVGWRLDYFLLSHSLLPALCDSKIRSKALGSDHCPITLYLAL
T3 sequence (P27695 whole entry): as above
Sequence of protein with a molecular weight of about 38 kDa (Ref-1) (P27695 whole entry): as above
Sequence of recombinant protein of Ref-1 (P27695 whole entry): as above
T1 sequence (P27695 whole entry): as above

protein band not observed in reference control (specific binding) [1]: specifically binding to DQ2511
SMILES: CNC(=O)c1cccc(NCC(=O)NCCc2ccc(OC)c(OC)c2)c1 [DQ2511]
protein obtained from immobilized particles (binding ability) [2]: possessing DQ2511-binding ability

protein bands not observed in reference control (specific binding) [3]: specifically binding to E3330 | protein band not observed in reference control (specific binding) ([4]; P.5 fraction, 1 M KCl eluate, SDS-PAGE silver staining): specifically binding to E3330 | yield of the about 38 kDa protein in competitive binding-inhibitory experiment ([4]; free E3330 at the same moles as immobilized NH2-E3330): lowered | solubility in water (Solubility in water): insoluble in water | enhancement of DNA-binding ability of p50/p50 homo-dimer or p65/p50 hetero-dimer by Ref-1 [5]: reduced | AP nuclease activity of Ref-1 (Ref-1 [6]): not inhibited | binding in Far Western method (Ref-1 [7]): bound to Ref-1 | binding of recombinant Ref-1 to immobilized drug [8]: specifically bound to E3330 | enhancement of the DNA-binding activity of NF-κB by Ref-1 [9]: reduced | increase in the DNA-binding activity of NF-κB by DTT [9]: did not inhibit
SMILES: CCCCCCCCC/C(=C\C1=C(C)C(=O)C(OC)=C(OC)C1=O)C(=O)O [E3330]
transcriptional activation abilities of NF-κB (NF-κB): reduced | binding of recombinant protein possessing only 72 a.a. to 88 a.a. of Ref-1 [10]: confirmation of its binding ability against E3330

SMILES: CNCCNS(=O)(=O)c1cccc2cnccc12 [H-8]
elution of the 30 kDa protein from H-9-immobilized particles by free drug [11]: same protein band was obtained | yield of the 30 kDa protein in competition experiment [11]: lower yield

SMILES: NCCNS(=O)(=O)c1cccc2cnccc12 [H-9]
protein band not observed in reference control (specific binding) ([11]; HeLa nuclear extract, SDS-PAGE silver staining): specifically binding to H-9 | elution of the 30 kDa protein from H-9-immobilized particles by free drug [11]: same protein band was obtained | yield of the 30 kDa protein in competition experiment [11]: lower yield
